Experimental findings from ChEMBL document CHEMBL1743341, “Cytochrome p450 enzymes mechanism based inhibitors: common sub-structures and reactivity” (Curr Drug Metab, 2005) are described below.

A word on the kinact: it is the rate constant of inactivation at saturating inhibitor. Usually pKi stands for the Ki on a negative log10 scale, so that one unit is a factor of ten.

Series [1] has as its target T1, CYP2D6 (Homo sapiens, UniProt P10635). The series can be described thus: (§1) Mechanism based inhibition of human cytochrome P450 2D6 measured by bufurarol hydroxylation using liver microsomes. Conditions: probe bufurarol. In kind it is ADME, Microsome. A general note: Liver microsomes are a subcellular fraction often used to study metabolism.
Series [2] has as its target T2, Cytochrome P450 2D6 (Homo sapiens, UniProt P10635). Described as §1. In kind it is ADME, Microsome.
The target in series [3] is T3, Cytochrome P450 3A4 (Homo sapiens, UniProt P08684). The series can be described thus: Mechanism based inhibition of human cytochrome P450 3A4, partition ratio. In kind it is ADME.
Series [4] concerns the target T4, CYP3A4 (Homo sapiens, UniProt P08684). The series can be described thus: (§2) Mechanism based inhibition of human cytochrome P450 3A4 measured by DBF fluorescence. In kind it is ADME. Conditions: human, probe DBF.
Series [5] addresses T3, Cytochrome P450 3A4. Described as §2. In kind it is ADME.
Series [6] addresses T4, CYP3A4. The series can be described thus: (§3) Mechanism based inhibition of human cytochrome P450 3A4 measured by testosterone 6-beta hydroxylation. In kind it is ADME. Conditions: human, probe testosterone (6-beta hydroxylation).
In series [7] the target is T3, Cytochrome P450 3A4. Described as §3. In kind it is ADME.
Series [8] concerns the target T3, Cytochrome P450 3A4. The series can be described thus: (§4) Mechanism based inhibition of human cytochrome P450 3A4. In kind it is ADME.
The target in series [9] is T1, CYP2D6. The series can be described thus: (§5) Mechanism based inhibition of human cytochrome P450 2D6 measured by […] 1'-hydroxylation. In kind it is ADME. As to conditions: human, probe bufurarol.
Series [10] addresses T2, Cytochrome P450 2D6. Described as §5. In kind it is ADME.
The target of another series is Cytochrome P450 2C9 (Homo sapiens, UniProt P11712). The series can be described thus: Mechanism based inhibition of human cytochrome P450 2C9 measured by tienilic acid 5-hydroxylation. In kind it is ADME.
Series [11] has as its target T5, Cytochrome P450 2C8 (Homo sapiens, UniProt P10632).
T5 sequence (P10632 whole entry): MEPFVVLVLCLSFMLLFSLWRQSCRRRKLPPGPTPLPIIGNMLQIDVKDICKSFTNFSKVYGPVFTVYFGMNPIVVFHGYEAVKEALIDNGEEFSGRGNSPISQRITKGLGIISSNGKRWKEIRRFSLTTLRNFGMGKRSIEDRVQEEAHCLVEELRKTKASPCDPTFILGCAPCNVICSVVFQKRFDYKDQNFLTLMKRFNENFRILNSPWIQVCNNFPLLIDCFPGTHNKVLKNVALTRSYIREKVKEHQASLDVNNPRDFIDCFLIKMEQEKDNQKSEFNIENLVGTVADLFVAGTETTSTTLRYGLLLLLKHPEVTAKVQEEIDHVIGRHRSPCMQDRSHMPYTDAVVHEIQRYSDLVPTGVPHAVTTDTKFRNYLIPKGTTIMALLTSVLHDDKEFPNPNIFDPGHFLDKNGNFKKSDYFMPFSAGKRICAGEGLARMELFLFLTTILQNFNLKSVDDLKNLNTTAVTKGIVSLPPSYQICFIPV
Description: (§8) Mechanism based inhibition of human cytochrome P450 2C8 measured by paclitaxel hydroxylation using a recombinant system

Series [12] deals with T6, CYP2C8 (Homo sapiens, UniProt P10632).
T6 sequence (P10632 whole entry): T5 sequence (P10632 whole entry)
The series can be described thus: in vitro. Conditions: human liver microsomes, probe paclitaxel.
Description: (§9) Mechanism based inhibition of human cytochrome P450 2C8 measured by paclitaxel hydroxylation using human liver microsomes

For series [13], the target named is T6, CYP2C8. The series can be described thus: in vitro. As to conditions: recombinant CYP2C8, probe paclitaxel.
Description: as §8
Series [14] concerns the target T5, Cytochrome P450 2C8. This is another data set of the same source.
Description: as §9
The target in series [15] is T1, CYP2D6. The series can be described thus: (§6) Mechanism based inhibition of human cytochrome P450 2D6 measured by dextromethorphan O-demethylation. As to conditions: human, probe dextromethorphan.
Series [16] has as its target T2, Cytochrome P450 2D6. The description is as §6.
In series [17] the target is T3, Cytochrome P450 3A4. The series can be described thus: Mechanism based inhibition of human cytochrome P450 3A4 measured by midazolam hydroxylation in vivo. In kind it is ADME, organism-based.
Series [18] concerns the target T3, Cytochrome P450 3A4. The description is as §4. In kind it is ADME. This is another data set of the same source.
The target of series [19] is T4, CYP3A4. The series can be described thus: (§7) Mechanism based inhibition of human cytochrome P450 3A4 measured by N-demethylation of erythromycin. As to conditions: human, probe erythromycin (N-demethylation). In kind it is ADME.
Series [20] addresses T3, Cytochrome P450 3A4. The series is described as §7. In kind it is ADME.

Structures are written as SMILES. pKi: −log10 of the molar value.

T4 sequence (P08684 whole entry): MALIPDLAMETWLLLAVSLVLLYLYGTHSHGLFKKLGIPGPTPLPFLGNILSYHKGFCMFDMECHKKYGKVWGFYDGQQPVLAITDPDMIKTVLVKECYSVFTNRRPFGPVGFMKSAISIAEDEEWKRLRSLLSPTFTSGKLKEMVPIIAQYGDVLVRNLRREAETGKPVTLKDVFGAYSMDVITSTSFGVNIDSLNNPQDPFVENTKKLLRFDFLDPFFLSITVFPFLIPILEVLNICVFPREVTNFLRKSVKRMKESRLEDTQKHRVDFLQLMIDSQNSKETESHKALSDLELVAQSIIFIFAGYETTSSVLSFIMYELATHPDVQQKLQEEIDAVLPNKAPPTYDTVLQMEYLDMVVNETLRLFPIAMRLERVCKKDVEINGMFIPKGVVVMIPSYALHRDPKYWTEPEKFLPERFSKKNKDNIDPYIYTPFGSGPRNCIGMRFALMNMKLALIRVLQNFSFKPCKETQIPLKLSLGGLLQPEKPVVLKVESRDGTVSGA
T3 sequence (P08684 whole entry): as above
T2 sequence (P10635 whole entry): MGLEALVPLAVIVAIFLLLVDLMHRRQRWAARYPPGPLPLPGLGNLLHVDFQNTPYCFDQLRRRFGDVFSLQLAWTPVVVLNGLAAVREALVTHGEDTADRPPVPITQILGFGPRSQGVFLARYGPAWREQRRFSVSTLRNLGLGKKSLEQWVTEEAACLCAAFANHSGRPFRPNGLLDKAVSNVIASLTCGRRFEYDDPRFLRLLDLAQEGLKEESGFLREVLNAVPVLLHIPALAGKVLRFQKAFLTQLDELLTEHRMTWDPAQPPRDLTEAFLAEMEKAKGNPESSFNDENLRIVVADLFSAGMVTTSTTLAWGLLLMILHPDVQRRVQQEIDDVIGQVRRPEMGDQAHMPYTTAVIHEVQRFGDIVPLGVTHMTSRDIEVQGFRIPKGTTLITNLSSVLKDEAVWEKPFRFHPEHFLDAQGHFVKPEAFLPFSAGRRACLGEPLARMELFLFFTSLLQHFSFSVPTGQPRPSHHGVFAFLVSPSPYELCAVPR
T1 sequence (P10635 whole entry): as above
Sequence of Cytochrome P450 2C9 (P11712 whole entry): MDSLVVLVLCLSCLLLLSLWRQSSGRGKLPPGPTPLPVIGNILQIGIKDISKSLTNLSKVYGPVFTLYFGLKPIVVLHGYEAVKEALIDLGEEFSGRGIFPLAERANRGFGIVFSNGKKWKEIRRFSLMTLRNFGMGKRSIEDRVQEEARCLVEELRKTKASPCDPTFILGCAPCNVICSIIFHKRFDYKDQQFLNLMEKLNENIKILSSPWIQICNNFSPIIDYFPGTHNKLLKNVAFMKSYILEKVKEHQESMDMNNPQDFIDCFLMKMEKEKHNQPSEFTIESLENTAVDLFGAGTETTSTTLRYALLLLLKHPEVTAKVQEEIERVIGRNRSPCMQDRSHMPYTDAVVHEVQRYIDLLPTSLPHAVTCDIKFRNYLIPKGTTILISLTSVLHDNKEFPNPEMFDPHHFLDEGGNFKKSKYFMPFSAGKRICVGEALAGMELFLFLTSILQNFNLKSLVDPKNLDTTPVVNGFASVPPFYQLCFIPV

Take `CCN(CC1CCN(S(C)(=O)=O)CC1)[C@@H](C)Cc1ccc2c(c1)CCO2`: at CYP2D6 [1], the kinact was 0.38 s⁻¹. The compound also gave a pKi on Cytochrome P450 2D6 [2] of 5.85.

As for `CC(O)CCC(=O)c1ccoc1` (centres undefined), the Partition ratio at Cytochrome P450 3A4 [3] came to 257. For the same compound, at CYP3A4 [4], the kinact is 0.0025 s⁻¹. The compound further showed a pKi at Cytochrome P450 3A4 [5] of 4.70.

As to `CC(C)(C)NC(=O)[C@@H]1CN(Cc2cnc3occc3c2)CCN1C[C@@H](O)C[C@@H](Cc1ccccc1)C(=O)N[C@H]1c2ccccc2C[C@H]1O`, the results for the kinact on CYP3A4 [6] and on CYP2D6 [9] were 0.027 s⁻¹ and 0.003 s⁻¹, respectively. Moreover, the pKi on Cytochrome P450 3A4 [7] was 5.12; on Cytochrome P450 2D6 [10], 4.49. Moreover, the results for the mechanism based inhibition entry at Cytochrome P450 3A4 [7] and on Cytochrome P450 3A4 [8] were “Cytochrome P450 mechanistic inhibitor: PMID 8531125” and “Cytochrome P450 mechanistic inhibitor: PMID 10757976”, respectively. Besides, at Cytochrome P450 3A4 [3], the Partition ratio stood at 1.4.

In the case of `O=C(O)COc1ccc(C(=O)c2cccs2)c(Cl)c1Cl`, the mechanism based inhibition entry at Cytochrome P450 2C9 is reported as “Cytochrome P450 mechanistic inhibitor: PMID 8944768”.

As for `CCCCc1oc2ccccc2c1C(=O)c1cc(I)c(OCCN(CC)CC)c(I)c1` [AMIODARONE], the pKi is 5.82 on Cytochrome P450 2C8 [11] and 4.29 at Cytochrome P450 2C8 [14]. Further, the kinact at CYP2C8 [12] was 0.000483 s⁻¹; at CYP2C8 [13] it was 0.00132 s⁻¹.

Take `CN/C(=N/CCSCc1nc[nH]c1C)NC#N` [CIMETIDINE]: the kinact at CYP2D6 [15] is 0.0005 s⁻¹. The same compound gave a pKi on Cytochrome P450 2D6 [16] of 4.11.

For `C#C[C@]1(O)C=C[C@H]2[C@@H]3CCC4=CC(=O)CC[C@@H]4[C@H]3CC[C@@]21CC` [GESTODENE], the results for the mechanism based inhibition entry at Cytochrome P450 3A4 [8], at Cytochrome P450 3A4 [17] and on Cytochrome P450 3A4 [18] were “Cytochrome P450 mechanistic inhibitor: PMID 9385444”, “Cytochrome P450 mechanistic inhibitor: PMID 11012556” and “Cytochrome P450 mechanistic inhibitor: PMID 2133086”, respectively.

In the case of `COc1cc2c(c(OC)c1OC)-c1c(cc3c(c1OC)OCO3)C[C@H](C)[C@](C)(O)[C@H]2OC(=O)c1ccccc1` [GOMISIN C], on CYP3A4 [19], the kinact is 0.00153 s⁻¹. On Cytochrome P450 3A4 [20], the pKi was 6.40.
